# Experimental data from ChEMBL document CHEMBL4507270 (2021).
# Activity calls are given as the source filed them. The calls are words filed in the database; no cut-off is given here.
# Assays:
# Angiopoietin-1 receptor [1] = target: T1, Angiopoietin-1 receptor (Homo sapiens, UniProt Q02763); test: KINOMEScan (DiscoveRx Corp) with TEK
# D(2) dopamine receptor = D(2) dopamine receptor (Homo sapiens, UniProt P14416); test: GPCRScan assay: inhibition of D2; set-up: radioligand conc. used [nm] 0.4 – 1.0, parental cells stable fibroblast
# [2] = target: Epithelial discoidin domain-containing receptor 1 (Homo sapiens, UniProt Q08345); test: Inhibition of DDR1 at compound concentration of 10.0 uM using the ScanMax (DiscoverX)
# [3] = target: Delta-type opioid receptor (Homo sapiens, UniProt P41143); test: GPCRScan assay: inhibition of DOR; set-up: radioligand conc. used [nm] 1.0 – 2.0, parental cells stable HEK
# [4] = target: D(1B) dopamine receptor (Homo sapiens) (UniProt P21918); details: Compound concentration 10.0 uM
# [5] = target: Serine/threonine-protein kinase 10 (Homo sapiens, UniProt O94804); test: NanoBRET assay (SGC Frankfurt) with STK10
# [6] = target: GABA-A receptor; anion channel (Rattus norvegicus) (UniProt O09028+P15431+P18506+P18508+P19969+P20236+P23574+P23576+P28471+P28473+P30191+P62813+P63079+P63138+Q91ZM7+Q9ES14); details: Compound concentration 10.0 uM
# [7] = target: T2, Tyrosine-protein kinase receptor Tie-1 (Homo sapiens, UniProt P35590); details: Compound concentration 1000.0 nM
# [8] = target: 5-hydroxytryptamine receptor 2C (Homo sapiens, UniProt P28335); test: GPCRScan assay: inhibition of 5-HT2C; set-up: radioligand conc. used [nm] 1.0 – 2.5, parental cells HEK T
# [9] = target: T3, Discoidin domain-containing receptor 2 (Homo sapiens, UniProt Q16832); test: Inhibition of DDR2 at compound concentration of 10.0 uM using the ScanMax (DiscoverX)
# T3 sequence (Q16832 whole entry): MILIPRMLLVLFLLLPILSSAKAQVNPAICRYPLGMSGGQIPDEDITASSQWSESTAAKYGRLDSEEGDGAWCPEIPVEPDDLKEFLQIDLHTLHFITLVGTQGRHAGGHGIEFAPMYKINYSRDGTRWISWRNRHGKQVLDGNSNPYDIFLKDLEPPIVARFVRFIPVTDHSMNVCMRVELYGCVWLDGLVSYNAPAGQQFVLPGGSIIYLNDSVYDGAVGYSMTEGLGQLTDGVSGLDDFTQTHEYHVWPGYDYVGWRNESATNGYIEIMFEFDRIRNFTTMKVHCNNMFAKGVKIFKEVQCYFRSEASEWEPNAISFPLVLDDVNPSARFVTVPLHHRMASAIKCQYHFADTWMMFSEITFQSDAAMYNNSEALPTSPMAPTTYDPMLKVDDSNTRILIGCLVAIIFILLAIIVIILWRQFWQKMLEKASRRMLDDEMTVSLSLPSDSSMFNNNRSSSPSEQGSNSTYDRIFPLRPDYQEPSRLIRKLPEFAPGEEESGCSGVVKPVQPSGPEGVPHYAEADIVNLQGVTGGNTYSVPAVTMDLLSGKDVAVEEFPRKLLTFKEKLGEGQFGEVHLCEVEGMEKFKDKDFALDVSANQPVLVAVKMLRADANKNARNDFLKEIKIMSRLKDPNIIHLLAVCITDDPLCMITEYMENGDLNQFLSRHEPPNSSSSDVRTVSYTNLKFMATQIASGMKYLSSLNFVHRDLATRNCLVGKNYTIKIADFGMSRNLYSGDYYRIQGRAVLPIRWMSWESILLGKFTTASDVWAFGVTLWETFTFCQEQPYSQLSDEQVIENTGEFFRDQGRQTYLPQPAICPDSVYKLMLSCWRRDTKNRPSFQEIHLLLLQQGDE
# [10] = target: 5-hydroxytryptamine receptor 2B (Homo sapiens, UniProt P41595); test: GPCRScan assay: inhibition of 5-HT2B; set-up: radioligand conc. used [nm] 1.0 – 2.0, parental cells stable HEK
# [11] = target: Sodium-dependent noradrenaline transporter (Homo sapiens, UniProt P23975); test: GPCRScan assay: inhibition of NET; set-up: radioligand conc. used [nm] 1.3 – 5.0, parental cells stable HEK
# [12] = target: T2, Tyrosine-protein kinase receptor Tie-1; test: NanoBRET assay (SGC Frankfurt) with TIE1
# Mu-type opioid receptor = Mu-type opioid receptor (Homo sapiens, UniProt P35372); test: GPCRScan assay: inhibition of MOR; set-up: radioligand conc. used [nm] 1.0 – 2.0, parental cells stable HEK
# [13] = target: 5-hydroxytryptamine receptor 6 (Homo sapiens) (UniProt P50406); details: Compound concentration 10.0 uM
# [14] = target: Vascular endothelial growth factor receptor 2 (Homo sapiens, UniProt P35968); test: KINOMEScan (DiscoveRx Corp) with KDR
# [15] = target: Vascular endothelial growth factor receptor 3 (Homo sapiens, UniProt P35916); test: Bayer in-house kinase assay with FLT4
# [16] = target: Histamine H3 receptor (Homo sapiens) (UniProt Q9Y5N1); details: Compound concentration 10.0 uM
# Angiopoietin-1 receptor [17] = target: T1, Angiopoietin-1 receptor; test: Bayer in-house kinase assay with TEK
# [18] = target: D(3) dopamine receptor (Homo sapiens) (UniProt P35462); details: Compound concentration 10.0 uM
# [19] = target: Platelet-derived growth factor receptor beta (Homo sapiens, UniProt P09619); test: Bayer in-house kinase assay with PDGFRB
# [20] = target: Fibroblast growth factor receptor 3 (Homo sapiens, UniProt P22607); test: Bayer in-house kinase assay with […]
# [21] = target: Histamine H4 receptor (Homo sapiens) (UniProt Q9H3N8); details: Compound concentration 10.0 uM
# [22] = target: Histamine H1 receptor (Homo sapiens) (UniProt P35367); details: Compound concentration 10.0 uM
# T2 sequence (P35590 whole entry): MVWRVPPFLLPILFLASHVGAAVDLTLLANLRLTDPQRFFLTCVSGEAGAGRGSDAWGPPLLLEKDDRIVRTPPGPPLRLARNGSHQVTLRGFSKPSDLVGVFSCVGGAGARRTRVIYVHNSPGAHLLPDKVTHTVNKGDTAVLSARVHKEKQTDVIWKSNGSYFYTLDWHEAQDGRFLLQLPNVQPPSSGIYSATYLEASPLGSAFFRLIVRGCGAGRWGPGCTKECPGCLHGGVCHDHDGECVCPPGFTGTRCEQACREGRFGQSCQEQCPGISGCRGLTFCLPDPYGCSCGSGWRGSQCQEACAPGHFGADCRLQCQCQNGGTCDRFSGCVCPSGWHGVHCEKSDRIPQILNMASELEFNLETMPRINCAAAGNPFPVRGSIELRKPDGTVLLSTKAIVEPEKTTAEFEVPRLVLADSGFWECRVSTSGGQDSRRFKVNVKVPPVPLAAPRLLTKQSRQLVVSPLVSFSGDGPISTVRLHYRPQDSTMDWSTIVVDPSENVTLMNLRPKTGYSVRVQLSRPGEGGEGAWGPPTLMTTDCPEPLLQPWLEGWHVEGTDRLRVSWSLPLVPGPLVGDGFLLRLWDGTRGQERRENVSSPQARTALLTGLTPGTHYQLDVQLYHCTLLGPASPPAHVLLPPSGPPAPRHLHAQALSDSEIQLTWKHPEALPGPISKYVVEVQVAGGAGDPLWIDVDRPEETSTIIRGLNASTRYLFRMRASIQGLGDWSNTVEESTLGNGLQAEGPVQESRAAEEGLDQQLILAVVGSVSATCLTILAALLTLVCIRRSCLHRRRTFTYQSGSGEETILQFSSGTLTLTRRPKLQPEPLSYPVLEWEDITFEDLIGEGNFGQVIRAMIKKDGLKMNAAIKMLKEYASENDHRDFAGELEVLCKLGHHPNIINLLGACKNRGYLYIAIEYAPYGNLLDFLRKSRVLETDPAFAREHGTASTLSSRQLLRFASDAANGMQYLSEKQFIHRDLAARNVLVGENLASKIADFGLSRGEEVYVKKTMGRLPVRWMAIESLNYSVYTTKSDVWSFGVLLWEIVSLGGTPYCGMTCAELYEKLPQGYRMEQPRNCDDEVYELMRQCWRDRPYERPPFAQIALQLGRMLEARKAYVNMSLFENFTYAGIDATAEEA
# Sequence of Serine/threonine-protein kinase 10 (O94804 whole entry): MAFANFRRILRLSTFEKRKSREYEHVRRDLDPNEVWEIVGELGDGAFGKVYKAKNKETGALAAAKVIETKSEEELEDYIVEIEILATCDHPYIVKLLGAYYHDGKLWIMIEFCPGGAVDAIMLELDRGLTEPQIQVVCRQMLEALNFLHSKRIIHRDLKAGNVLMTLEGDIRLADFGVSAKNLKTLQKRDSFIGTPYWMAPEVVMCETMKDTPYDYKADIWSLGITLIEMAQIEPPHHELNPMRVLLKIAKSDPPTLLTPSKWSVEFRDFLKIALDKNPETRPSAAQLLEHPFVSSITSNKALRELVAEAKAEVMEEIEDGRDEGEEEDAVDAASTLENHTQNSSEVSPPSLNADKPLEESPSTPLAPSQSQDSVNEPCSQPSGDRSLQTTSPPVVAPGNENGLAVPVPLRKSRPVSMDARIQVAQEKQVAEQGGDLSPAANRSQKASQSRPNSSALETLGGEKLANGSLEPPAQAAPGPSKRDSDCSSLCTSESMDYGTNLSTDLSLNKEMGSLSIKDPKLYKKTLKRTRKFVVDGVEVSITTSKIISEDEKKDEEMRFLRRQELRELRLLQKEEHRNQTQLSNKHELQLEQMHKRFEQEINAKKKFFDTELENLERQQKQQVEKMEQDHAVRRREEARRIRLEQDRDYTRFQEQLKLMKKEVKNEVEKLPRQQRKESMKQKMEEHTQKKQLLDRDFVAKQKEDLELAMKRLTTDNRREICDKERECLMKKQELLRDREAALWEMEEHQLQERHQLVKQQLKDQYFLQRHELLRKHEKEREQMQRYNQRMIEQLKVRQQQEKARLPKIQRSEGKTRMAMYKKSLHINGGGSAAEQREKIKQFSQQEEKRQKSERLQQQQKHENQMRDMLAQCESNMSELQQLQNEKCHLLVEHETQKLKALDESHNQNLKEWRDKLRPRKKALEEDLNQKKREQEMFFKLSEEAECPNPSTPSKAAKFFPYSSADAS
# T1 sequence (Q02763 whole entry): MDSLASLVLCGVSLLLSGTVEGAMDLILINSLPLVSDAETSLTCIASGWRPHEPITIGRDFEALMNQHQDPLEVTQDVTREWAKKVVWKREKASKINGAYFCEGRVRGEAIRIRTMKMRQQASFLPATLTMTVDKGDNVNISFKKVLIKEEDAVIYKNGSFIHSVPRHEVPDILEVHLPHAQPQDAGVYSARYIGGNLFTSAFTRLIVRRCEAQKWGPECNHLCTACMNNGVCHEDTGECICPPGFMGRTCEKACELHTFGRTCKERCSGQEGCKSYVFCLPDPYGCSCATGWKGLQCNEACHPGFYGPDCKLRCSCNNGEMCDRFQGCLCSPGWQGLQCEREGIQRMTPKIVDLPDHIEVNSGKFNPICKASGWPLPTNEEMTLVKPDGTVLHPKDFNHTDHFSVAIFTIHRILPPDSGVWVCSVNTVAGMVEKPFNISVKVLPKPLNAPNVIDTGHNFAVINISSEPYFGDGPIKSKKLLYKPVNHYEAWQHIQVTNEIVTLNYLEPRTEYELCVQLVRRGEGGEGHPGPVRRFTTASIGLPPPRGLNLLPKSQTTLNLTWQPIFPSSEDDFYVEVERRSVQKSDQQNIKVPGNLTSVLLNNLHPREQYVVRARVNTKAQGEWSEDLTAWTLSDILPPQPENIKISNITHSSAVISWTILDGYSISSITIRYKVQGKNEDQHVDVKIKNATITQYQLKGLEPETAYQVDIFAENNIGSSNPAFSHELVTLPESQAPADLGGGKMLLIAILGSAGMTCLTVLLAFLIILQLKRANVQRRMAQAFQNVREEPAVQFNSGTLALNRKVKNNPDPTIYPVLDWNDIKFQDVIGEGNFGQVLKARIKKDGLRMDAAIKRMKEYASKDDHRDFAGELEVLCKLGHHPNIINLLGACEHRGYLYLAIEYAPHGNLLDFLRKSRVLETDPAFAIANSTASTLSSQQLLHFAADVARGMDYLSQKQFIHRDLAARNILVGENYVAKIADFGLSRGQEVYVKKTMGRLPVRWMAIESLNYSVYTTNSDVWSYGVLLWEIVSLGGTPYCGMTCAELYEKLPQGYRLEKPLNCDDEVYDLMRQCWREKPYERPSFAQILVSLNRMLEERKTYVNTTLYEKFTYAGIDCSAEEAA
# Sequence of Vascular endothelial growth factor receptor 2 (P35968 whole entry): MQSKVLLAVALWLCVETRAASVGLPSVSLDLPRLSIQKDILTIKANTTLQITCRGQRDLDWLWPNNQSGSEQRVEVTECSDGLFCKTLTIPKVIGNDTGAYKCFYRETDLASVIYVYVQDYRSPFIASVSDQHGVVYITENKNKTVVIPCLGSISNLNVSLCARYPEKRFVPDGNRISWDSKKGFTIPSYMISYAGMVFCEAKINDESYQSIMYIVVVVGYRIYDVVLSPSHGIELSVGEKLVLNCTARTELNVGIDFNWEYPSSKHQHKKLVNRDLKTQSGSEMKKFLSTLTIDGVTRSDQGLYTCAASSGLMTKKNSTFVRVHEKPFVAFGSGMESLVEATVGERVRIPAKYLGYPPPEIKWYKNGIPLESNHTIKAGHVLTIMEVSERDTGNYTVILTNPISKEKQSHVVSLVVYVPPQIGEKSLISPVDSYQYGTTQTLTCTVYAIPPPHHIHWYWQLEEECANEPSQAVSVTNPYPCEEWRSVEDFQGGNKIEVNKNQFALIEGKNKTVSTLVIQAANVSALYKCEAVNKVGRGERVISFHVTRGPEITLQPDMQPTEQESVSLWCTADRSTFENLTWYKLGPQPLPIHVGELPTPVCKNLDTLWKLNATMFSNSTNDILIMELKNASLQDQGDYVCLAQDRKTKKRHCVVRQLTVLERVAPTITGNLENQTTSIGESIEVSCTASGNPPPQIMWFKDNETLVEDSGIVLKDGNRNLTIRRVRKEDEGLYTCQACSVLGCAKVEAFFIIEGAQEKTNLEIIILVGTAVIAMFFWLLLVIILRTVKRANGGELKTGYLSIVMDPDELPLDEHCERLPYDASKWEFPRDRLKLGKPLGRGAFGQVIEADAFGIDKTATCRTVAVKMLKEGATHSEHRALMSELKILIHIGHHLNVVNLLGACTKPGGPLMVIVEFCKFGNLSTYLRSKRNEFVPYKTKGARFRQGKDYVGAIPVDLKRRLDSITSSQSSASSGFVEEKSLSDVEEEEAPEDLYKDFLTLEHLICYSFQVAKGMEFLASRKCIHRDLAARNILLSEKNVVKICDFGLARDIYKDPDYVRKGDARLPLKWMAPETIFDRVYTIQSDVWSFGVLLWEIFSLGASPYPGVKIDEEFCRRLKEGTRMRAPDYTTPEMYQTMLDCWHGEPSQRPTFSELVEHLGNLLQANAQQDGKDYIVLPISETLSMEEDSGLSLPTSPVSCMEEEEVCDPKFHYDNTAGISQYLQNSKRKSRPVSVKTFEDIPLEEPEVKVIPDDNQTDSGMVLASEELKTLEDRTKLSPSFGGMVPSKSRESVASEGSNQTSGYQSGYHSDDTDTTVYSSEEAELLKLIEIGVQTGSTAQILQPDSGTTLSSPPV
# Sequence of Delta-type opioid receptor (P41143 whole entry): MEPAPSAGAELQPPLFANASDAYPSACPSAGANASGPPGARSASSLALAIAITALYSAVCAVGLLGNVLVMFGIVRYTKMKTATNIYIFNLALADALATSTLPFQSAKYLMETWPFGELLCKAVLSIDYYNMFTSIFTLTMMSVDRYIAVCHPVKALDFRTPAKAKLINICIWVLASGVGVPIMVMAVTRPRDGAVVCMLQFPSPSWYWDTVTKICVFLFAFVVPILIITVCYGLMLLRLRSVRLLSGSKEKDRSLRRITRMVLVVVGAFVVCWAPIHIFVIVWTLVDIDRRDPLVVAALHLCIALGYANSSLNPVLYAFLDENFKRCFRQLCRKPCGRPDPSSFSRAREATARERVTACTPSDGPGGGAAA
smiles,measurement,setting,value
Cc1cc(NC(=O)c2cccc(S(F)(F)(F)(F)F)c2)cc(-n2ccn3nc(-c4cccnc4)cc23)c1 [BAY-309],Kd,Angiopoietin-1 receptor [1],> 20 µM (not active)
same,Ki,D(2) dopamine receptor,10 µM
same,Kd,[2],0.0021 µM (active)
same,Ki,[3],1.73 µM
same,inhibition,[4],34.9%
same,EC50,[5],3.2 µM (not active)
same,IC50,[5],> 10 µM (not active)
same,inhibition,[6],33.3%
same,residual activity,[7],34.2%
same,Ki,[8],4.86 µM
same,Kd,[9],0.063 µM (not active)
same,Ki,[10],2.15 µM
same,Ki,[11],10 µM
same,EC50,[12],2.6 µM (not active)
same,IC50,[12],0.13 µM (not active)
same,Ki,Mu-type opioid receptor,6.99 µM
same,inhibition,[13],5.64%
Cc1cc(C)c(-n2ccn3nc(-c4cccnc4)cc23)cc1NC(=O)c1cc(C#N)cc(S(F)(F)(F)(F)F)c1 [BAY-826],Kd,[14],1.6 µM (not active)
same,IC50,[15],0.44 µM (not active)
same,inhibition,[16],-5.88%
same,IC50,Angiopoietin-1 receptor [17],0.00045 µM (active)
same,inhibition,[18],-5.85%
same,IC50,[19],> 20 µM (not active)
same,IC50,[20],> 10 µM (not active)
same,inhibition,[21],11.9%
same,inhibition,[22],25.3%
